Experimental findings from patent US8642759B2, “Benzene sulfonamide thiazole and oxazole compounds” (GlaxoSmithKline LLC, priority 2008, dated 2014) are described below.

Where two headings read alike, the source gives them in different places.

Assay [1] deals with T1, His6-tagged BRAFV600E full-length (amino acids 2-766) (Homo sapiens, UniProt P15056, V600E).
T1 construct: BRAFV600E full-length (amino acids 2-766); His6; made in house
Kind of assay: biochemical. The format is biochemical. The method, then:
Compounds of the present invention were tested for B-Raf protein serine kinase inhibitory activity in a B-Raf Accelerated MEK ATPase assay (BRAMA). […] The BRAMA assay is a high sensitivity assay which measures an intrinsic MEK-mediated ATP hydrolysis uncoupled from downstream ERK phosphorylation by coupling the formation of ADP to NADH oxidation through the enzymes pyruvate kinase and lactate dehydrogenase. When ADP production is initiated by addition of catalytic amounts of an activated Raf enzyme and non-phosphorylated MEK, one observes robust ADP production concomitant with Raf-mediated phosphorylation of MEK. The method is disclosed in: C. Rominger, M. Schaber, E. May. Assay for B-Raf Activity Based on Intrinsic MEK ATPase Activity.

For assay [2], the system named is cancer cell lines encoding B-Raf V600E mutation. Kind of assay: 3 day proliferation assay, panel of 22 cancer cell lines encoding B-Raf V600E. In kind it is cell-based. Conditions: count of cell lines of the panel of 22.
Assay [3] concerns A375P F11s. Kind of assay: Dose dependent tumor inhibition, A375P F11s subcutaneous xenograft. In kind it is in vivo, athymic mice. Also noted: key: −: indicates no response; +: indicates growth delay (1-2× doubling); ++: indicates growth delay (>2× doubling); +++: indicates stable disease; ++++: indicates partial regression; +++++: indicates complete regression. The following applies: oral, 14-day period. The method, then:
A375P F11s were cultured in RPMI 1640 medium supplemented with 10% fetal bovine serum, 1% Penicillin-streptomycin and 1% sodium pyruvate. Tumor cells (2×10^6 A375P F11s) were implanted subcutaneously into the right flank of athymic mice on Day 1. To facilitate their growth, A375P F11s cells were suspended in Matrigel diluted 1:1 in phosphate-buffered saline before implantation. When tumors had reached approximately 200 mm^3 in volume (Day 19-22), tumor-bearing mice were randomized into study groups (n=7 or 8). Animals were dosed orally once or twice daily for a 14-day period. […] Tumor growth was measured twice a week using calipers for the duration of the study. Tumor volumes were calculated as a product of (length×width×width)/2 and median values were used to compare groups. Complete regressions (CR) were defined as three consecutive tumor measurements of ≦13.5 mm^3. Partial regressions were defined as three consecutive measurements of ≦50% of starting tumor volume. Tumor growth delay was defined as the difference in time taken for treated and control groups to reach 1000 mm^3 (T-C1000).

For assay [4], the system named is Human colon tumor cells (Colo205). Kind of assay: Cell growth inhibition assay (CellTiter-Glo), Colo205. The format is cell-based. Conditions: COLO 205, 72 h, 3 days incubation. The method, then: Human colon tumor cells (Colo205) were cultured in RPMI (Mediatech 50-020-PB) containing 10% FBS and 1% penicillin-streptomycin.
The next day, compounds were diluted as follow: For 96-well assays, 13.5 μL of compound in DMSO were diluted using nine (9) serial 1:3 dilutions of 4.5 μL in 9 μL of DMSO. Medium (270 μL/well of RPMI with 10% FBS and 1% penicillin-streptomycin) was added to the plates. Aliquots (7 μL) were added to cells in the final assay giving a final DMSO concentration of 0.2%. For 384-well assays, 15 μL of compound in DMSO were diluted using nine (9) serial 1:3 dilutions of 5 μL in 10 μL of DMSO, followed by a further dilution of 5 μL of compound with 95 μL of medium, of which 2 μL were added to cells in the final assay giving a final DMSO concentration of 0.2%. Cells were incubated at 37° C., 5% CO2 for 3 days.
Total ATP was measured (as a surrogate estimate of cell number) using CellTiter-Glo® reagent (Promega G7571). Briefly, plates were removed from the incubator and allowed to equilibrate to room temperature for 30 minutes. CellTiter-Glo® (25 μL or 55 μL for 384-well or 96-well assays, respectively) reagent was added to each well and plates were shaken on an orbital plate shaker for 2 minutes. Plates were incubated without shaking for a further 30 minutes and read on an LJL Analyst GT reader in luminometer mode with an integration time of 0.5 seconds per well. Percent inhibition of cell growth was calculated relative to DMSO vehicle-treated control wells.
For orientation: In ATP-based viability assays light output follows the ATP content of the culture.

Assay [5] concerns Human melanoma cancer cells (SK-MEL-28). Kind of assay: Cell growth inhibition assay (CellTiter-Glo), SK-MEL-28. In kind it is cell-based. The following applies: SK-MEL-28, 72 h, 3 days incubation.
The mark [6] stands for this setting: Table 1a, highest pIC50 for the one or more runs.
Setting [7] is: Table 1a, highest pIC50 for the one or more runs, read-out: B-Raf Activity.
The mark [8] stands for this setting: Table 1b (later runs), average pIC50 for the one or more runs, read-out: B-Raf plC50.
Where [9] appears, read: Table 2a, read-out: Activity in Colo205 Tumor Cells.
Setting [10] is: Table 2b (later runs), average for the one or more runs, read-out: IC50 for Colo205.
Setting [11] is: Table 3a, read-out: Activity in SK-MEL-28 Tumor Cells.
Setting [12] is: Table 3b (later runs), average for the one or more runs, read-out: IC50 for SK-MEL-28.

T1 sequence (P15056 2-766 V600E): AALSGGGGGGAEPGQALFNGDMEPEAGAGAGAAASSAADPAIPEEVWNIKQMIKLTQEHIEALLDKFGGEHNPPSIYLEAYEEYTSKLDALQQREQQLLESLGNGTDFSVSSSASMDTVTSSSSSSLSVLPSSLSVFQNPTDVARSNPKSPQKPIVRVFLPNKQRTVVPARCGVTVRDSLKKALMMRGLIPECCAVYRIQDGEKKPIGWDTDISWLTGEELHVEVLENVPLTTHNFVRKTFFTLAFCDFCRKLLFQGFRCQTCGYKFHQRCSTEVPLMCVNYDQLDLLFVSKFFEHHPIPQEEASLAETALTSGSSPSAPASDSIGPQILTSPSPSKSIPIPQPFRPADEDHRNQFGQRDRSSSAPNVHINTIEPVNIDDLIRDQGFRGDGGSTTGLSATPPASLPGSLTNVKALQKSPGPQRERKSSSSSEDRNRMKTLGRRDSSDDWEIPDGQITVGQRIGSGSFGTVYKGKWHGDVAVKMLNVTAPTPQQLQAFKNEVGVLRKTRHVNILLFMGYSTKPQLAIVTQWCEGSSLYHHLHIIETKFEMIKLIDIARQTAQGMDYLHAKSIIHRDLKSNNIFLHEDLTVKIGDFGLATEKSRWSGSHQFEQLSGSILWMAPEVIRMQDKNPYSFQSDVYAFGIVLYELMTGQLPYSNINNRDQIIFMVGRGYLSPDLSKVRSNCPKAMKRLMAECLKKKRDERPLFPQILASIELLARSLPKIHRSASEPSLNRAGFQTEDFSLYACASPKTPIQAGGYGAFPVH

In the case of `CC(C)c1nc(-c2ccc(F)c(NS(=O)(=O)c3c(F)cccc3F)c2)c(-c2ccnc(NCCCCN(C)C)n2)s1` [Example 167], the “B-Raf Activity” value in assay [1] (setting [6]) was “++ (indicates at least one pIC50 measurement greater than 6 against B-Raf but no measurement greater than pIC50 of 7)”.
Take `CC(C)(C)c1nc(-c2cccc(NS(=O)(=O)c3c(F)cccc3F)c2F)c(-c2ccnc(N)n2)s1` [Example 58a, N-{3-[5-(2-Amino-4-pyrimidinyl)-2-(1,1-dimethylethyl)-1,3-thiazol-4-yl]-2-fluorophenyl}-2,6-difluorobenzenesulfonamide]: the “cancer cell lines encoding B-Raf V600E not sensitive (gIC50>1000M)” value in assay [2] is recorded as 4 out of 22. In assay [2], the “cancer cell lines encoding B-Raf V600E with intermediate response (gIC50≧100 nM and <1000 nM)” value is listed as 2 out of 22. Also, the Response entry is recorded as “+” in assay [3] (1 mg/kg qd); “++ (+)” in assay [3] (10 mg/kg qd); “++++ (+)” in assay [3] (100 mg/kg bid); “++++ (+)” in assay [3] (100 mg/kg qd); “++++ (+)” in assay [3] (300 mg/kg bid); “++++ (+)” in assay [3] (300 mg/kg qd).
On to `CC(C)c1nc(-c2ccc(F)c(NS(=O)(=O)c3c(F)cccc3F)c2)c(-c2ccnc(NCCN3CCOCC3)n2)s1` [Example 165], for which the “B-Raf Activity” value in assay [1] (setting [6]) is on record as “++ (indicates at least one pIC50 measurement greater than 6 against B-Raf but no measurement greater than pIC50 of 7)”.
Still for that read-out and setting: next, `CC(C)c1nc(-c2ccc(F)c(NS(=O)(=O)c3c(F)cccc3F)c2)c(-c2ccnc(NCCOCCO)n2)s1` [Example 166]: “++ (indicates at least one pIC50 measurement greater than 6 against B-Raf but no measurement greater than pIC50 of 7)”; `COCCCNc1nccc(-c2sc(C(C)C)nc2-c2ccc(F)c(NS(=O)(=O)c3c(F)cccc3F)c2)n1` [Example 168]: “++ (indicates at least one pIC50 measurement greater than 6 against B-Raf but no measurement greater than pIC50 of 7)”.
Turning to `CC(C)c1nc(-c2cccc(NS(=O)(=O)c3cc(F)ccc3F)c2F)c(-c2ccnc(NCCCNS(C)(=O)=O)n2)s1` [Example 195], the IC50 in assay [1] (setting [7]) was under 100 nM; in assay [1] (setting [8]), at most 3.16 nM; in assay [4] (setting [9]), under 100 nM; in assay [4] (setting [10]), under 100 nM; in assay [5] (setting [11]) it was under 100 nM; in assay [5] (setting [12]), under 100 nM.
Take `CC(C)c1nc(-c2cccc(NS(=O)(=O)c3cc(F)ccc3F)c2F)c(-c2ccnc(NCCCNC(=O)CO)n2)s1` [Example 196]: the IC50 in assay [1] (setting [7]) is under 100 nM; in assay [1] (setting [8]) it was at most 3.16 nM; in assay [4] (setting [9]), under 100 nM; in assay [4] (setting [10]), under 100 nM; in assay [5] (setting [11]) it was under 100 nM; in assay [5] (setting [12]) it was under 100 nM.
